Results taken from the supplement of paper PMC8671470.

Columns and labels:
Settings in all cases: 72 h
[1] = tested on: MOLM-13; assay: cell viability (% survival relative to DMSO control, bortezomib = 0%); higher = less cytotoxic
Method in brief: (§1)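 Fifteen myeloid leukaemia cell lines (10 AML, 5 CML) were seeded at a density titrated to the linear growth range into 384-well plates pre-printed with compounds at 1, 10, 100, 1000 or 10000 nM in duplicate. Plates were incubated for 72 h at 37 °C with 5% CO2. Viability was then read by CellTiter-Glo luminescence. Each value is percent survival averaged over the duplicates, with vehicle set to 100% and a 10 µM positive control to 0%.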

[2] = tested on: KCL-22; assay: as above
Method in brief: as §1

[3] = tested on: KG-1; assay: as above
Method in brief: as §1

[4] = tested on: HL-60; assay: area under dose-response curve (viability, 1 nM-10 uM) (fraction (0-1)); higher = more sensitive
Method in brief: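 Four-parameter log-logistic fits in drc and PharmacoGx supplied area under the curve where it is given. Underlying viability came from CellTiter-Glo, normalised to DMSO and proteasome-inhibitor wells, with the proteasome inhibitor at 10 μM. HL-60 cells in RPMI 1640 plus 10% FBS had been rescreened against the full library at five tenfold concentrations of 1–10,000 nM, in duplicate on 384-well plates, with DMSO or 100 nM of one of three metabolic inhibitors, for 72 h at 37 °C, 5% CO2.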

[5] = tested on: myeloid leukemia patient primary cells Pat.5; assay: cell viability (% survival relative to DMSO control); higher = less cytotoxic
Method in brief: (§2)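 Seventy compounds were pre-printed on 384-well plates at five tenfold concentrations between 1 and 10,000 nM, in duplicate. Thawed mononuclear cells purified by Ficoll from AML or CML patients were added at 10,000 cells/well in RPMI 1640 with 10% FBS for 72 h. Viability by CellTiter-Glo was normalised to DMSO and 10 μM proteasome-inhibitor wells. Where stated, area under the curve was taken from log-logistic fits made with the drc and PharmacoGx R packages, each fit having four parameters.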

[6] = tested on: myeloid leukemia patient primary cells Pat.3; assay: as above
Method in brief: as §2

[7] = tested on: myeloid leukemia patient primary cells Pat.6; assay: as above
Method in brief: as §2

[8] = tested on: myeloid leukemia patient primary cells Pat.15; assay: as above
Method in brief: as §2

[9] = tested on: myeloid leukemia patient primary cells Pat.12; assay: as above
Method in brief: as §2

[10] = tested on: myeloid leukemia patient primary cells Pat.7; assay: as above
Method in brief: as §2

[11] = tested on: myeloid leukemia patient primary cells Pat.10; assay: as above
Method in brief: as §2

[12] = tested on: myeloid leukemia patient primary cells Pat.4; assay: as above
Method in brief: as §2

[13] = tested on: myeloid leukemia patient primary cells Pat.2; assay: as above
Method in brief: as §2

[14] = tested on: myeloid leukemia patient primary cells Pat.11; assay: as above
Method in brief: as §2

[15] = tested on: myeloid leukemia patient primary cells Pat.8; assay: as above
Method in brief: as §2

[16] = tested on: myeloid leukemia patient primary cells Pat.13; assay: as above
Method in brief: as §2

[17] = tested on: myeloid leukemia patient primary cells Pat.14; assay: as above
Method in brief: as §2

[18] = tested on: myeloid leukemia patient primary cells Pat.1; assay: as above
Method in brief: as §2

Nc1nc(Cl)nc2c1ncn2[C@H]1C[C@H](O)[C@@H](CO)O1 [Cladribine]
Settings | area under dose-response curve, co-treatment: AZD3965 100 nM | area under dose-response curve, co-treatment: DMSO vehicle | area under dose-response curve, co-treatment: GSK2194069 100 nM | area under dose-response curve, co-treatment: pictilisib 100 nM | cell viability, 1 nM [%] | cell viability, 10 nM [%] | cell viability, 100 nM [%] | cell viability, 1000 nM [%] | cell viability, 10000 nM [%]
[1] | – | – | – | – | 100 | 87.2 | 4.48 | 0.607 | -0.282
[2] | – | – | – | – | 114 | 111 | 68.9 | 15.6 | 7.11
[3] | – | – | – | – | 101 | 105 | 102 | 9.9 | 5.04
[4] | 0.45 | 0.394 | 0.459 | 0.515 | – | – | – | – | –
[5] | – | – | – | – | 50.7 | 35.2 | 9.01 | 0.265 | 1.33
[6] | – | – | – | – | 92.1 | 69.8 | 7.92 | 6.26 | 6.06
[7] | – | – | – | – | 95.1 | 74.3 | 19.2 | 6.84 | 6.92
[8] | – | – | – | – | 95.4 | 82.7 | 88.4 | 60.2 | 13.9
[9] | – | – | – | – | 94.5 | 83.1 | 54.4 | 20.5 | 7.86
[10] | – | – | – | – | 97.6 | 82.8 | 17.1 | < 0 | < 0
[11] | – | – | – | – | 95 | 33.1 | 0.135 | 2.16 | 6.29
[12] | – | – | – | – | 99 | 55.6 | 13.5 | 4.74 | 6.11
[13] | – | – | – | – | > 100 | 89.8 | 53.5 | 15.5 | 10.1
[14] | – | – | – | – | > 100 | 96.6 | 76.6 | 59.8 | 63.8
[15] | – | – | – | – | 88.1 | 77.7 | 12.6 | 3.65 | 3.19
[16] | – | – | – | – | 96.2 | 54.6 | 12.5 | 4.44 | 4.27
[17] | – | – | – | – | 90.7 | 75.3 | 17.3 | 3.16 | 0.937
[18] | – | – | – | – | 95.2 | 98.3 | > 100 | 90.3 | 94.1

N#CC(C#N)=NNc1ccc(OC(F)(F)F)cc1 [FCCP]
Settings | area under dose-response curve, co-treatment: AZD3965 100 nM | area under dose-response curve, co-treatment: DMSO vehicle | area under dose-response curve, co-treatment: GSK2194069 100 nM | area under dose-response curve, co-treatment: pictilisib 100 nM | cell viability, 1 nM [%] | cell viability, 10 nM [%] | cell viability, 100 nM [%] | cell viability, 1000 nM [%] | cell viability, 10000 nM [%]
[1] | – | – | – | – | 121 | 92.6 | 99.3 | 82.7 | 0.459
[2] | – | – | – | – | 110 | 83.6 | 85.8 | 68.3 | 4.51
[3] | – | – | – | – | 101 | 101 | 94.7 | 80.8 | 7.07
[4] | 0.104 | 0.106 | 0.0946 | 0.107 | – | – | – | – | –
[5] | – | – | – | – | 19.1 | 52.4 | 14.8 | < 0 | 3.45
[6] | – | – | – | – | 88.5 | 82.9 | 94.9 | 3.06 | < 0
[7] | – | – | – | – | 87 | 97.4 | 88.8 | 65.5 | 20
[8] | – | – | – | – | 91.2 | 99.1 | 94.5 | 81.5 | 3.23
[9] | – | – | – | – | > 100 | 93.3 | 99.7 | 89.5 | 36.1
[10] | – | – | – | – | 82.8 | 82.5 | 93.6 | < 0 | < 0
[11] | – | – | – | – | 66.5 | 64 | 50.5 | 7.03 | 2.16
[12] | – | – | – | – | 89 | 90.4 | 97.9 | 53.6 | 4.18
[13] | – | – | – | – | 92.5 | 90.8 | > 100 | 95.3 | 30
[14] | – | – | – | – | 98 | 97.3 | > 100 | 82.4 | 9.9
[15] | – | – | – | – | 71.4 | 91.6 | 82.1 | 89.1 | 3.73
[16] | – | – | – | – | 85 | > 100 | 89.8 | 59.4 | 4.66
[17] | – | – | – | – | 67.3 | 93.7 | 94.6 | 17.4 | 0.937
[18] | – | – | – | – | 90.1 | 89.9 | > 100 | 59.9 | 5.44

O=C1c2cc([N+](=O)[O-])ccc2-n2c1nc1ccccc1c2=O [GNF-Pf-3777]
Settings | area under dose-response curve, co-treatment: AZD3965 100 nM | area under dose-response curve, co-treatment: DMSO vehicle | area under dose-response curve, co-treatment: GSK2194069 100 nM | area under dose-response curve, co-treatment: pictilisib 100 nM | cell viability, 1 nM [%] | cell viability, 10 nM [%] | cell viability, 100 nM [%] | cell viability, 1000 nM [%] | cell viability, 10000 nM [%]
[1] | – | – | – | – | 99.5 | 122 | 108 | 75.8 | 18
[2] | – | – | – | – | 87.9 | 115 | 102 | 37 | 21.2
[3] | – | – | – | – | 99.6 | 95.6 | 110 | 67.1 | 27.6
[4] | 0.15 | 0.122 | 0.154 | 0.165 | – | – | – | – | –
[5] | – | – | – | – | > 100 | 63 | 73 | 36.1 | 3.37
[6] | – | – | – | – | 93.1 | 86.9 | 72.7 | 46.2 | 20
[7] | – | – | – | – | > 100 | 98.8 | 98.6 | 94.3 | 66.8
[8] | – | – | – | – | 90.6 | 89.1 | 96.8 | 87.9 | 40.2
[9] | – | – | – | – | 98 | 96.3 | 99.1 | 99.3 | 78.6
[10] | – | – | – | – | 95.9 | 70.7 | > 100 | 97.1 | 21.8
[11] | – | – | – | – | 61.7 | 47.7 | 77.9 | 36.6 | 15.5
[12] | – | – | – | – | 97.7 | 97 | 96 | 79.5 | 19
[13] | – | – | – | – | 98.3 | 93.2 | 95.5 | 93.7 | 62.3
[14] | – | – | – | – | > 100 | 97.9 | 94 | 86.8 | 64.4
[15] | – | – | – | – | 97.5 | 94.9 | 88.4 | 84 | 64.9
[16] | – | – | – | – | 94.2 | 96.4 | 96.6 | 80.8 | 35.8
[17] | – | – | – | – | 96.8 | 95 | 96.8 | 85.7 | 54.2
[18] | – | – | – | – | > 100 | 94.8 | 86.5 | 77.2 | 65.1
